Results: patent EP4741383A1, “COMPOUND AND USE THEREOF AS ANTI-CANCER DRUG” (Tyligand Bioscience (Shanghai) Limited, priority 2023, dated 2025)

Columns and labels:
Type in all cases: biochemical
PTP1B = target: T1, PTP1B (Homo sapiens, UniProt P18031); assay: Tyrosine phosphatase selectivity (pNPP substrate), PTP1B; settings: for IC50: PTP1B, pNPP substrate; for IC50PTP/IC50SHP2 PTP1B: selectivity ratio PTP1B over SHP2
T1 construct: made in house; host or cells: E. coli
T1 sequence (P18031 1-435): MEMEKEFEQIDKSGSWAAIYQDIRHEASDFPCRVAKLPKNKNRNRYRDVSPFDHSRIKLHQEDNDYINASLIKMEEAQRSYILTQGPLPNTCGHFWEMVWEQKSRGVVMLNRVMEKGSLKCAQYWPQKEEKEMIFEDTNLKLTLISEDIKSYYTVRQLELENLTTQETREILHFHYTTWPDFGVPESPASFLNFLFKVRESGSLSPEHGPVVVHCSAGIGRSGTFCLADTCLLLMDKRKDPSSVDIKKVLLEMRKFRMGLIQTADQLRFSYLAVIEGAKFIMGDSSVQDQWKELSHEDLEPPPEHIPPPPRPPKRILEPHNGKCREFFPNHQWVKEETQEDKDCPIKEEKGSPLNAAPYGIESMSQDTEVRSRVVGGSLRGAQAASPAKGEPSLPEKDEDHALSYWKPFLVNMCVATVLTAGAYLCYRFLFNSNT
Experimental: (§1) This experiment evaluated the selectivity of the disclosed compounds against tyrosine phosphatases, including SHP1, HePTP, Laforin, LMWPTP, LYP, PTP1B, PRL2, SSU72, VHR, FAP1, STEP, CDC14A, CD45, MEG2, and PP5, all expressed and purified from E. coli.
(§2) Phosphatase activity was measured using p-nitrophenyl phosphate (pNPP) (Fisher Scientific) as the substrate in 50 mM 3,3-dimethylglutaric acid buffer (pH 7.0, containing 1 mM EDTA), with ionic strength adjusted to 0.15 M with NaCl. […] After 10-60 minutes, the reaction was quenched by adding 20 µL of 5 N NaOH. Wells without enzyme were used as controls for correction. The amount of the product, p-nitrophenol, was determined by measuring the absorbance at 405 nm using a Spectra MAX340 microplate spectrophotometer (Molecular Devices), with a molar extinction coefficient of 18000 M^-1cm^-1.
(§3) Data were analyzed using GraphPad Prism software. Dose-response curves were obtained by fitting data using the nonlinear S-curve regression Dose-response-inhibition equation, and IC50 values were calculated.

Laforin = target: T2, Laforin (Homo sapiens, UniProt O95278); assay: Tyrosine phosphatase selectivity (pNPP substrate), Laforin; settings: for IC50: Laforin, pNPP substrate; for IC50PTP/IC50SHP2 Laforin: selectivity ratio Laforin over SHP2
T2 construct: made in house; host or cells: E. coli
T2 sequence (O95278 1-331): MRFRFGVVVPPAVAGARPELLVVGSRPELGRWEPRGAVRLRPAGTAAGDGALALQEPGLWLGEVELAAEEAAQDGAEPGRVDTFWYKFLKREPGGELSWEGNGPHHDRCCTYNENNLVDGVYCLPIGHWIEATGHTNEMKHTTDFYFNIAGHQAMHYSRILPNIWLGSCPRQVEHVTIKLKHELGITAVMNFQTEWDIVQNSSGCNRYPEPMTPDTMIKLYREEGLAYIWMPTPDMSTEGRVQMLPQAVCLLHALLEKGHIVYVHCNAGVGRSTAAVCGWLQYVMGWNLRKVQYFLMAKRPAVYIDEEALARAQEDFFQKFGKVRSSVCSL
Experimental: as §1, §2, §3

PP5 = target: T3, PP5 (Homo sapiens, UniProt P53041); assay: Tyrosine phosphatase selectivity (pNPP substrate), PP5; settings: for IC50: PP5, pNPP substrate; for IC50PTP/IC50SHP2 PP5: selectivity ratio PP5 over SHP2
T3 construct: made in house; host or cells: E. coli
T3 sequence (P53041 1-499): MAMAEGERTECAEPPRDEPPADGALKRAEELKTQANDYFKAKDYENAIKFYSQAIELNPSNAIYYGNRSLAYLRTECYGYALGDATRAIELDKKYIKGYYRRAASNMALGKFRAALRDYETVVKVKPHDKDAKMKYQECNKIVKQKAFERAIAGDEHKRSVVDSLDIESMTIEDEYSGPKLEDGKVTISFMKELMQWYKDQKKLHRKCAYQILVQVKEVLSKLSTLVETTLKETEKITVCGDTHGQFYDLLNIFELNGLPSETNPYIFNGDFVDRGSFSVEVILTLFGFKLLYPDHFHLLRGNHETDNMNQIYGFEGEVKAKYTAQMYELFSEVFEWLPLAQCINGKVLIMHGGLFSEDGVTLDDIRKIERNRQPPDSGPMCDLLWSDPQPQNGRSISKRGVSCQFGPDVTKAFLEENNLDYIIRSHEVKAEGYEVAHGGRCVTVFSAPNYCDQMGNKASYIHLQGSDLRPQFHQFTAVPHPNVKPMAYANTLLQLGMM
Experimental: as §1, §2, §3

LMWPTP = target: T4, LMWPTP (Homo sapiens, UniProt P24666); assay: Tyrosine phosphatase selectivity (pNPP substrate), LMWPTP; settings: for IC50: LMPTP*, pNPP substrate; for IC50PTP/IC50SHP2 LMPTP*: selectivity ratio LMPTP* over SHP2
T4 construct: made in house; host or cells: E. coli
T4 sequence (P24666 1-158): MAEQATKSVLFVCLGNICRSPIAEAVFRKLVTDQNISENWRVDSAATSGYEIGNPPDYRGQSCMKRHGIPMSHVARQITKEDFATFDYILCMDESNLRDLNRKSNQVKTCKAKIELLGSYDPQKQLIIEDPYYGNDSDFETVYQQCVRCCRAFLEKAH
Experimental: as §1, §2, §3

FAP1 = target: T5, FAP1 (Homo sapiens, UniProt Q12923); assay: Tyrosine phosphatase selectivity (pNPP substrate), FAP1; settings: FAP1, pNPP substrate
T5 sequence (Q12923 2163-2477): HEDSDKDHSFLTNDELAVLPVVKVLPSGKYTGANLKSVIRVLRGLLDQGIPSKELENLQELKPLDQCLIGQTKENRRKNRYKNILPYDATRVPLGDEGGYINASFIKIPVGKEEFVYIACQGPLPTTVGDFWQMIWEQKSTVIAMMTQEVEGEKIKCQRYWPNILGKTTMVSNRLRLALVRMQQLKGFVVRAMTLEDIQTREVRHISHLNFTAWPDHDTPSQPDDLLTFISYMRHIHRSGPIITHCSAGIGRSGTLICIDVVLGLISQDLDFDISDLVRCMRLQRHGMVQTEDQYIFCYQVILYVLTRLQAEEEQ
Experimental: as §1, §2, §3

VHR = target: T6, VHR (Homo sapiens, UniProt P51452); assay: Tyrosine phosphatase selectivity (pNPP substrate), VHR; settings: for IC50: VHR, pNPP substrate; for IC50PTP/IC50SHP2 VHR: selectivity ratio VHR over SHP2
T6 construct: made in house; host or cells: E. coli
T6 sequence (P51452 whole entry, species assumed): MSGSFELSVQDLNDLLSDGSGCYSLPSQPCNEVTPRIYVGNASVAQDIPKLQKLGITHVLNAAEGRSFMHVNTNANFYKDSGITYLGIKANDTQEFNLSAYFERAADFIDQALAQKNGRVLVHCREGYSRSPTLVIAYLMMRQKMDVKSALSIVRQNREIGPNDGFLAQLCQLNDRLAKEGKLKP
Experimental: as §1, §2, §3

PRL2 = target: T7, PRL2 (Homo sapiens, UniProt Q12974); assay: Tyrosine phosphatase selectivity (pNPP substrate), PRL2; settings: for IC50: PRL2, pNPP substrate; for IC50PTP/IC50SHP2 PRL2: selectivity ratio PRL2 over SHP2
T7 construct: made in house; host or cells: E. coli
T7 sequence (Q12974 1-167): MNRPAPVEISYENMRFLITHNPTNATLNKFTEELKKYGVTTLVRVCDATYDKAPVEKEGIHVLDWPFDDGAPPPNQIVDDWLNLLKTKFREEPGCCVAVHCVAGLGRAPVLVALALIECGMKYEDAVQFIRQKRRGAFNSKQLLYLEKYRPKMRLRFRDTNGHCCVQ
Experimental: as §1, §2, §3

| SMILES | IC50 (PTP1B) [µM] | IC50PTP/IC50SHP2 PTP1B (PTP1B) | IC50 (Laforin) [µM] | IC50PTP/IC50SHP2 Laforin (Laforin) | IC50 (PP5) [µM] | IC50PTP/IC50SHP2 PP5 (PP5) | IC50 (LMWPTP) [µM] | IC50PTP/IC50SHP2 LMPTP* (LMWPTP) | IC50 (FAP1) [µM] | IC50 (VHR) [µM] | IC50PTP/IC50SHP2 VHR (VHR) | IC50 (PRL2) [µM] | IC50PTP/IC50SHP2 PRL2 (PRL2) |
| --- | --- | --- | --- | --- | --- | --- | --- | --- | --- | --- | --- | --- | --- |
| Cn1c(-c2cccc(NC(=O)C(=O)Nc3ccc(-c4ccsc4)cc3)c2)c(I)c2cc(C(=O)O)c(O)cc21 [Example 11a-1, reference compound] | 2.29 | 21.2 | 12.2 | 112 | – | – | 2.34 | 21.6 | – | 3.2 | 29.6 | – | – |
| O=C(Nc1ccc(-c2cc3cc(F)c(-c4nnn[nH]4)cc3n2C2CCC2)cc1)C(=O)Nc1ccc(N2CCOCC2)cc1 [Example 47] | 0.37 | 5.8 | 0.61 | 9.6 | > 100 | 1587 | 1.09 | 17.3 | 1.53 | 1.15 | 18.2 | > 100 | 1587 |
| O=C(Nc1ccc(-c2cc3cc(F)c(-c4nnn[nH]4)cc3n2C2CCC2)cc1)C(=O)Nc1ccc(N2CCC3(CCOC3)CC2)cc1 [Example 67] | 0.39 | 11.4 | 6.21 | 182 | > 100 | 2941 | 1.37 | 40.2 | 2.34 | 4.45 | 130 | > 100 | 2941 |
| CC1(n2c(-c3ccc(NC(=O)C(=O)Nc4ccc(N5CCC6(CCOC6)CC5)cc4)cc3)cc3cc(F)c(-c4nnn[nH]4)cc32)CCC1 [Example 68] | 1.5 | 31.3 | > 25 | 520.8 | > 25 | 520.8 | 0.37 | 7.7 | 0.56 | > 25 | 520.8 | > 25 | 520.8 |
| O=C(Nc1ccc(-c2oc3cc(F)c(-c4nnn[nH]4)cc3c2C2CCC2)cc1)C(=O)Nc1ccc(N2CCC3(CCOC3)CC2)cc1 [Example 125] | 6.28 | 123.1 | > 100 | 1960.8 | > 100 | 1960.8 | 2.24 | 43.9 | 7.44 | 88.2 | 1729.4 | > 100 | 1960.8 |
| O=C(Nc1ccc(-c2ccsc2)cc1)C(=O)Nc1ccc(-c2cc3ccc(-c4nnn[nH]4)nc3n2C2CCC2)cc1 [Example 129] | 8.5 | 144.1 | > 20 | 339.0 | > 50 | 847.5 | > 20 | 339.0 | 4.2 | < 3 | 50.8 | > 50 | 847.5 |
| O=C(Nc1ccc(-c2ccsc2)cc1)C(=O)Nc1ccc(-c2oc3cc(F)c(-c4nnn[nH]4)cc3c2C2CCC2)cc1 [Example 130] | 11.6 | 464 | > 20 | 800 | > 50 | 2000 | > 20 | 800 | < 3 | < 3 | 120 | > 50 | 2000 |

Next, values leading:

| IC50 (PTP1B) [µM] | IC50PTP/IC50SHP2 PTP1B (PTP1B) | IC50 (Laforin) [µM] | IC50PTP/IC50SHP2 Laforin (Laforin) | IC50 (PP5) [µM] | IC50PTP/IC50SHP2 PP5 (PP5) | IC50 (LMWPTP) [µM] | IC50PTP/IC50SHP2 LMPTP* (LMWPTP) | IC50 (FAP1) [µM] | IC50 (VHR) [µM] | IC50PTP/IC50SHP2 VHR (VHR) | IC50 (PRL2) [µM] | IC50PTP/IC50SHP2 PRL2 (PRL2) | SMILES |
| --- | --- | --- | --- | --- | --- | --- | --- | --- | --- | --- | --- | --- | --- |
| 3.2 | 110.3 | > 20 | 689.7 | > 50 | 1724.1 | > 20 | 689.7 | 19.5 | 4.5 | 155.2 | > 50 | 1724.1 | O=C(Nc1ccc(-c2ccsc2)cc1)C(=O)Nc1ccc(-c2cc3cc(F)c(-c4nnn[nH]4)cc3n2C2CCC2)cc1 [Example 4] |
| 0.47 | 6.5 | 2.44 | 33.8 | > 100 | 1388 | 2.13 | 29.5 | 1.9 | 2.14 | 29.7 | > 100 | 1388 | O=C(Nc1ccc(-c2cc3cc(F)c(-c4nnn[nH]4)cc3n2C2CCC2)cc1)C(=O)Nc1ccc(N2CC3COCC3C2)cc1 (stereo not drawn) [Example 114] |
| 1.2 | 8.5 | > 100 | 709.2 | > 100 | 709.2 | 2.48 | 17.6 | 7.3 | 2.44 | 17.3 | > 100 | 709.2 | Cn1cc(-c2ccc(NC(=O)C(=O)Nc3ccc(-c4cc5cc(F)c(-c6noc(=O)[nH]6)cc5n4C4CCC4)cc3)cc2)cn1 [Example 123] |
| > 100 | 139.7 | > 100 | 139.7 | > 100 | 139.7 | > 20 | 27.9 | > 100 | > 100 | 139.7 | > 100 | 139.7 | Cn1cc(-c2ccc(NC(=O)C(=O)Nc3ccc(-c4cc5cc(F)c(-c6nnc(C(F)(F)F)[nH]6)cc5n4C4CCC4)cc3)cc2)cn1 [Example 124] |
